This note sets out measurements from patent US20150335692A1, “ORAL PREPARATION, INJECTION PREPARATION, EXTERNAL SKIN PREPARATION AND COSMETIC METHOD FOR PREVENTING OR IMPROVING WRINKLES” (Shiseido Company, Ltd., priority 2008, published 2015).

The target of one test is T1, heparanase (Homo sapiens, UniProt Q9Y251).
T1 construct: the resulting supernatant was used as a cell extract; endogenous in cells; host or cells: A431 cells (lysate supernatant)
T1 sequence (Q9Y251 158-543 limits assumed): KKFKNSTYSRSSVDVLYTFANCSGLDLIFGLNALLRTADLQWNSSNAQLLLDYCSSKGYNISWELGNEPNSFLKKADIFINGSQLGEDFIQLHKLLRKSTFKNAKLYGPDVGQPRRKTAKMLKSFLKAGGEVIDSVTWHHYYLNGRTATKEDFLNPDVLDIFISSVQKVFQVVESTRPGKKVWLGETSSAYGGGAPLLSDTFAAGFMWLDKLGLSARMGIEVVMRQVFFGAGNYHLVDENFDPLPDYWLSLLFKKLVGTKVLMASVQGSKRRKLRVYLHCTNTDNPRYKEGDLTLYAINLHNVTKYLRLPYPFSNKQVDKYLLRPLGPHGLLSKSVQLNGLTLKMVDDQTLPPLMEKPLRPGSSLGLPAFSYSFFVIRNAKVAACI
T1 sequence (Q9Y251 36-109 limits assumed): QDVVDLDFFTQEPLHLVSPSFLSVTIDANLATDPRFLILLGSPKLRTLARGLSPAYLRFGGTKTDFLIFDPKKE
Kind of test: Primary evaluation: heparanase activity inhibition, A431 cell extract on biotinylated heparan sulfate-immobilized plate. The format is biochemical. Particulars: 2 hours at 37° C., DMSO control. The source says: As will be described in detail in the following examples, primary evaluation of heparanase activity can be carried out by, for example, immobilizing biotinylated heparan sulfate in a 96-well plate, allowing the heparanase to act in the presence of a pharmaceutical preparation or herbal medicine, and evaluating the activity of heparanase as the amount of the decrease in biotinylated heparan sulfate by allowing peroxidase-labeled avidin to act thereon and developing the resulting color. […] Secondary evaluation can be carried out by using HT1080 cells expressing heparanase. […] Therefore, heparanase inhibitory activity can be evaluated on the basis of the degree of migration (recovery) at the scratched site by adding an evaluation reagent.
A431 cells (invasive human epithelial carcinoma cells) were cultured in DMEM medium containing 10% serum. […] The amount of protein in the cell extract was measured with a BCA Protein Assay Kit (Pierce, CA46141). […]
Heparanase activity was calculated from a calibration curve of the A431 cell extract, and inhibition rate (%) was indicated as a relative value to a reference (control) to which the cell extract was not added. […]
The plant extracts were evaluated for heparanase inhibitory effects in accordance with the aforementioned primary and secondary evaluation methods using sample solutions of the plant extracts instead of 4-(1H-benzoimidazol-2-yl)-phenylamine.

The subject of a further test is HT1080 cells. Kind of test: Secondary evaluation: wound healing assay using HT1080 cells. In kind it is cell-based. To be noted: HT1080 cells, 1, 10, 100 μM, DMSO control. An excerpt:
As will be described in detail in the following examples, primary evaluation of heparanase activity can be carried out by, for example, immobilizing biotinylated heparan sulfate in a 96-well plate, allowing the heparanase to act in the presence of a pharmaceutical preparation or herbal medicine, and evaluating the activity of heparanase as the amount of the decrease in biotinylated heparan sulfate by allowing peroxidase-labeled avidin to act thereon and developing the resulting color. […] Secondary evaluation can be carried out by using HT1080 cells expressing heparanase. When HT1080 cells are scratched after having been cultured to confluency, cells are known to migrate in a heparanase activity-dependent manner (see Ishida, K., et al., Mol. Cancer Ther., 2004, 3(9): 1069-1077 (Non-Patent Document 4)). Therefore, heparanase inhibitory activity can be evaluated on the basis of the degree of migration (recovery) at the scratched site by adding an evaluation reagent.
HT1080 cells were inoculated into a 6-well plate at 500,000 cells/well, and the medium was replaced with that containing each drug 24 hours later followed by scratching in the vertical direction with a 1000 μL tip. Micrographs were taken 6 hours later and changes at the scratched site were observed. […] DMSO was allowed to act as a control instead of the candidate drugs.

The next test relates to fine wrinkle model. Kind of test: Anti-wrinkle effects in fine wrinkle model (visual wrinkle score). In kind it is in vivo. Particulars: 1 mM in 50% aqueous ethanol, 100 μl applied to skin three times a week for two weeks; scored two weeks later; higher scores indicate deeper wrinkles. As for the experimental part: The anti-wrinkle effects of the heparanase inhibitor, suramin, were assessed using a fine wrinkle model (Non-Patent Document 2).
Suramin was dissolved in 50% aqueous ethanol solution to a concentration of 1 mM and applied in 100 μl aliquots to skin of the fine wrinkle model three times a week for a period of two weeks during which time fine wrinkles are formed. A 50% aqueous ethanol solution was used as a solvent control.
The formation of wrinkles two weeks later was scored by visual evaluation. Wrinkle formation was scored in increments of 0.5 based on evaluation criteria consisting of: no wrinkles: 0, slight wrinkles: 1, obvious wrinkles: 2 and deep wrinkles: 3. Higher scores indicate deeper wrinkles. In contrast to the mean value of the scores of the solvent control being 0.78, that for suramin was 0.31, thereby indicating significant wrinkle inhibitory effects as compared with the solvent control. Namely, the application of suramin at 1 mM significant inhibited wrinkle formation as compared with 50% ethanol applied as a solvent control. […]
The formation of wrinkles two weeks later was scored by visual evaluation. Wrinkle formation was scored in increments of 0.5 based on evaluation criteria consisting of: no wrinkles: 0, slight wrinkles: 1, obvious wrinkles: 2 and deep wrinkles: 3. […]

Test [1] concerns basement membrane heparan sulfate chains. Put plainly: Immunostaining of epidermal basement membrane heparan sulfate chains in skin of fine wrinkle model. In kind it is in vivo. To be noted: skin coated with 1 mM compound versus 50% ethanol solvent control. An excerpt: Next, heparan sulfate chains were immunostained for the skin after 2 days, 1 week and 2 weeks, and the staining results are shown in FIG. 4. Although staining of basement membrane heparan sulfate chains decreased from 2 days to 1 week in skin of the solvent control, stainability of basement membrane heparan sulfate chains was protected by application of suramin.
Next, heparan sulfate chains and perlecan core protein in the skin were immunostained, and the staining results are shown in FIG. 6. Although staining of basement membrane heparan sulfate chains decreased considerably for the solvent control, stainability of basement membrane heparan sulfate chains was protected in the 1-[4-(1H-benzoimidazol-2-yl)-phenyl]-3-[4-(1H-benzoimidazol-2-yl)-phenyl]-urea application group.

`Nc1ccc(-c2nc3ccccc3[nH]2)cc1` [4-(1H-benzoimidazol-2-yl)-phenylamine]: the IC50 against heparanase came out at 256 µM. The “cell migration activity at scratched site” value with HT1080 cells was “decreased in a concentration-dependent manner”.
With `O=C(Nc1ccc(-c2nc3ccccc3[nH]2)cc1)Nc1ccc(-c2nc3ccccc3[nH]2)cc1` [1-[4-(1H-benzoimidazol-2-yl)-phenyl]-3-[4-(1H-benzoimidazol-2-yl)-phenyl]-urea], in the test on fine wrinkle model, the “mean value of wrinkle formation scores (visual evaluation; 0 no wrinkles to 3 deep wrinkles)” value amounted to 0.36. For the same compound, in test [1], the “stainability of basement membrane heparan sulfate chains (immunostaining)” value was “protected”.
For the compound `Cc1ccc(C(=O)Nc2ccc(S(=O)(=O)O)c3cc(S(=O)(=O)O)cc(S(=O)(=O)O)c23)cc1NC(=O)c1cccc(NC(=O)Nc2cccc(C(=O)Nc3cc(C(=O)Nc4ccc(S(=O)(=O)O)c5cc(S(=O)(=O)O)cc(S(=O)(=O)O)c45)ccc3C)c2)c1` [suramin], the “mean value of wrinkle formation scores (visual evaluation; 0 no wrinkles to 3 deep wrinkles)” value in the test on fine wrinkle model was determined as 0.31. Moreover, the “stainability of basement membrane heparan sulfate chains (immunostaining)” value in test [1] is on record as “protected”.
